Assay results: the supplement of paper PMC11061612

Experiments:
EW-24 (Ewing's Sarcoma) = experiment: Bliss excess, mean over the matrix (fraction); higher = more synergy
Method in brief: (§1)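 Bliss excess equals the observed combination effect minus the expected value EA + EB − EA·EB, where EA and EB are the effects of each agent alone. Combination Emax is the second-highest inhibition within the matrix. Inhibition was scaled from CellTiter-Glo 2.0 luminescence, with 0 set by vehicle wells and 1 by blank wells, after 72 hours of two-drug dosing of cells plated in 1536-well plates.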

[1] = test system: EFM-19 (Breast Carcinoma); experiment: combination Emax (second highest fraction inhibited in the dose matrix, 72 h); higher = more inhibition; extreme values may be limits of the assay
Method in brief: as §1

[2] = test system: TE-1 (Esophageal Squamous Cell Carcinoma); experiment: as above
Method in brief: as §1

[3] = test system: SCC-15 (Oral Cavity Carcinoma); experiment: as above
Method in brief: as §1

UACC-62 (Melanoma) = experiment: as above
Method in brief: as §1

[4] = test system: AMO-1 (Plasma Cell Myeloma); experiment: as above
Method in brief: as §1

[5] = test system: C-4-I (Cervical Carcinoma); experiment: as above
Method in brief: as §1

[6] = test system: BT-549 (Breast Carcinoma); experiment: as above
Method in brief: as §1

TK10 (Kidney Carcinoma) = experiment: as above
Method in brief: as §1

[7] = test system: SU8686 (Pancreatic Carcinoma); experiment: as above
Method in brief: as §1

[8] = test system: VA-ES-BJ (Other Solid Carcinomas); experiment: as above
Method in brief: as §1

[9] = test system: KMOE-2 (Acute Myeloid Leukemia); experiment: as above
Method in brief: as §1

[10] = test system: KYSE-450 (Esophageal Squamous Cell Carcinoma); experiment: as above
Method in brief: as §1

ACHN (Kidney Carcinoma) = experiment: as above
Method in brief: as §1

[11] = test system: NEC8 (Other Solid Carcinomas); experiment: as above
Method in brief: as §1

[12] = test system: NCI-H1915 (Non-Small Cell Lung Carcinoma); experiment: as above
Method in brief: as §1

[13] = test system: OVCAR-4 (Ovarian Carcinoma); experiment: as above
Method in brief: as §1

[14] = test system: RF-48 (B-Cell Non-Hodgkin's Lymphoma); experiment: as above
Method in brief: as §1

[15] = test system: KARPAS-299 (T-Cell Non-Hodgkin's Lymphoma); experiment: as above
Method in brief: as §1

[16] = test system: Ca9-22 (Head and Neck Carcinoma); experiment: as above
Method in brief: as §1

Row | SMILES | Bliss excess (EW-24 (Ewing's Sarcoma)) | combination Emax [1] | combination Emax [2] | combination Emax [3] | combination Emax (UACC-62 (Melanoma)) | combination Emax [4] | combination Emax [5] | combination Emax [6] | combination Emax (TK10 (Kidney Carcinoma)) | combination Emax [7] | combination Emax [8] | combination Emax [9] | combination Emax [10] | combination Emax (ACHN (Kidney Carcinoma)) | combination Emax [11] | combination Emax [12] | combination Emax [13] | combination Emax [14] | combination Emax [15] | combination Emax [16]
1 | C=CCn1c(=O)c2cnc(Nc3ccc(N4CCN(C)CC4)cc3)nc2n1-c1cccc(C(C)(C)O)n1 [AZD1775] + C[C@@H]1COCCN1C2=NC(=NC(=C2)C3(CC3)[S@](=N)(=O)C)C4=C5C=CNC5=NC=C4 [AZD6738] (first compound max 1 µM, partner max 10 µM) | -0.0427 | 0.672 | 0.654 | 0.517 | 0.622 | 0.922 | 0.93 | 0.808 | 0.698 | 0.384 | 0.822 | 0.92 | 0.946 | 0.964 | 0.932 | 0.658 | 0.843 | 0.669 | 0.965 | 0.957
2 | COc1nnc2ccc(N3CCC(c4ccc(OCCN5CCN(C)C(=O)[C@H]5C)cc4)CC3)nn12 [AZD5153] + C[C@@H]1COCCN1C2=NC(=NC(=C2)C3(CC3)[S@](=N)(=O)C)C4=C5C=CNC5=NC=C4 [AZD6738] (first compound max 1 µM, 7x7, partner max 10 µM) | -0.0044 | 0.549 | 0.617 | 0.524 | 0.664 | 0.978 | 0.876 | 0.637 | 0.695 | 0.1 | 0.799 | 0.988 | 0.481 | 0.928 | 0.954 | 0.546 | 0.711 | 0.629 | 0.985 | 0.878
3 | Cc1c2c(nn1C)CSCc1cc(n(C)n1)CSc1cc(c3ccccc3c1)OCCCc1c(C(=O)O)n(C)c3c-2c(Cl)ccc13 [AZD5991] + C=CCn1c(=O)c2cnc(Nc3ccc(N4CCN(C)CC4)cc3)nc2n1-c1cccc(C(C)(C)O)n1 [AZD1775] (first compound max 1 µM, partner max 1 µM) | 0.0056 | 0.778 | 0.89 | 0.437 | 0.901 | 1 | 1 | 0.811 | 0.498 | 0.33 | 0.6 | 0.992 | 0.763 | 0.938 | 0.851 | 0.649 | 0.742 | 0.605 | 0.992 | 0.879
4 | CC1(C)CCC(CN2CCN(c3ccc(C(=O)NS(=O)(=O)c4ccc(NCC5CCOCC5)c([N+](=O)[O-])c4)c(Oc4cnc5[nH]ccc5c4)c3)CC2)=C(c2ccc(Cl)cc2)C1 [Venetoclax] + Cn1cnc2c(F)c(Nc3ccc(Br)cc3Cl)c(C(=O)NOCCO)cc21 [Selumetinib] (first compound max 1 µM, 7x7, partner max 3 µM) | -0.0463 | 0.232 | 0.245 | 0.264 | 0.767 | 0.806 | 0.385 | 0.106 | 0.322 | 0.135 | 0.123 | 0.992 | 0.109 | 0.688 | 0.104 | 0.423 | 0.209 | 0.286 | 0.812 | 0.222
5 | Cc1c2c(nn1C)CSCc1cc(n(C)n1)CSc1cc(c3ccccc3c1)OCCCc1c(C(=O)O)n(C)c3c-2c(Cl)ccc13 [AZD5991] + Cn1cnc2c(F)c(Nc3ccc(Br)cc3Cl)c(C(=O)NOCCO)cc21 [Selumetinib] (first compound max 1 µM, 7x7, partner max 3 µM) | -0.017 | 0.282 | 0.655 | 0.322 | 0.998 | 1 | 1 | 0.258 | 0.454 | 0.334 | 0.184 | 1 | 0.331 | 0.4 | 0.383 | 0.568 | 0.376 | 0.21 | 0.992 | 0.581
6 | COc1cccc(OCCCN)c1-c1cc(Nc2cnc(C#N)cn2)n[nH]1 [Prexasertib] + CN(C)CCCOc1ccc(-c2ccc3ncc4c(c3c2)n(C2CCOCC2)c(=O)n4C)cn1 [AZD0156] (first compound max 1 µM, 7x7, partner max 1 µM) | -0.0082 | 0.28 | 0.71 | 0.617 | 0.828 | 0.98 | 0.915 | 0.707 | 0.727 | 0.525 | 0.766 | 0.945 | 0.615 | 0.926 | 0.986 | 0.588 | 0.771 | 0.744 | 0.983 | 1
